Measurements as given in patent US20220339134A1, “VERY-LONG-CHAIN POLYUNSATURATED FATTY ACIDS, ELOVANOID HYDROXYLATED DERIVATIVES, AND METHODS OF USE” (Board of Supervisors of Louisiana State University and …, priority 2019, published 2022).

Legend:
[1] = methyl ester or sodium salt; administered 1 hour following 2 hours of ischemia; cited from earlier work
hypothalamic neurons = assay: Fluoro-Jade B staining of organotypic hypothalamus slices; assay type: cell-based, db/db mice; details: 500 nM, 48 h incubation; db/db hypothalamus slices
Experimental: Fluoro-Jade b (F-Jb) stains degenerating neurons. […] 48 h incubation with 500 nM ELV34 elicited neuroprotection that was reflected in the decrease of F-Jb signal (a).

RPE and PRC = assay: Subretinal injection of OAβ in WT mice +/- ELVs (RPE flat mount, OCT, qPCR, Western blot); assay type: in vivo; details: for OAβ-activated senescence program (p16INK4a, MMP1, p53, p21, p27, Il-6, SASP secretome) followed by RPE and PRC demise: summary of mouse and human RPE data
Excerpt: (A) In vivo experimental design: 6-month-old C57BL/6J WT mice were divided into 7 groups (n=12/group): non-injected, PBS, OAβ only, OAβ+ELV-N-32, OAβ+ELV-N-34, ELV-N-32 only and ELV-N-34 only. On day 3, mRNA were isolated for Real-Time PCR. On day 7, mice were subjected to OCT and then eyes enucleated and processed for whole mount RPE staining and Western blots. (B) Whole flat mount of RPE with tight junction marker, Zonula occludens-1 (ZO-1) antibody. OAβ disrupted RPE morphology. (C) OAβ effects on retina and RPE by OCT. (D) Thickness of PRC layer was thinner in OAβ injected group. (E) RPE gene expression after Oaβ (1-42) injection and treatment with ELVs. (E-G) Gene expression in the same functional group were plotted. Senescence- and AMD-related genes (E), and collagenases, gelatinase, stromelysins and others matrix metalloproteinases (MMP) (F) and autophagy (G). (H) p16INK4a, a key marker for senescence, western blots of RPE. (I) Retina apoptosis gene expression after OAβ (1-42) injection and treatment with ELVs. (*P<0.05, student t-test).
ELVs restore RPE morphology and reduce gene expression after subretinal injection of OAβ in WT mice. (A) Mice were divided into 7 groups: non-injected, PBS, OAβ only, OAβ+ELV-N-32, OAβ+ELV-N-34, ELV-N-32 only and ELV-N-34 only. On day 3, mRNA were isolated for RT-PCR. On day 7, mice were subjected to OCT and then eyes were enucleated and processed to whole mount RPE staining and Western blot. (B) Whole flat mount of RPE. OAβ disrupted RPE morphology. However, RPE were less damage in the ELVs treatment group as well as PBS, ELVs alone did non induce changes. (C) Evaluation the OAβ effects on retina and RPE by OCT. (D) The thickness of PRC was thin in the OAβ injected group. OAβ cause the cell death of PRC, as the thinner in OCT measurement. (E) RPE gene expression after OAβ (1-42) injection and treatment with ELVs. 3 days after injection, the RNAs from RPE were isolated, reverse transcribed into cDNA and subjected to RT-PCR with different primers. Genes in the same functional group were plotted in the same chart, including senescence- and AMD-related genes (E), and collagenases, gelatinase, stromelysins and others matrix metalloproteinases (MMP) (F) and autophagy (G). (H) p16INK4a western blots of RPE/Choroid. […] (I) Retina gene expression after OAβ (1-42) injection and treatment with ELVs. OAβ activates apoptosis genes in the retina. […] (*P<0.05, using student t-test comparison).
All animal experiments were performed according to ARVO Statement for the Use of Animals in Ophthalmic and Vision Research, and the protocol was approved by LSU Health New Orleans' Institutional Animal Care and Use Committee (IACUC). 6-month-old 5×FAD mice (stock number: 34848-JAX, The Jackson Laboratory, Bar Harbor, Me., USA), co-overexpress FAD mutant forms of human amyloid precursor protein (the Swedish mutation: K670N, M671L; the Florida mutation: I716V; and the London mutation: V7171) and presenilin 1 (PS1, encoded by Psen1: M146L, L286V) transgenes under transcriptional control of the neuron-specific mouse Thy1 promoter. 5×FAD mice were hemizygotes with respect to the transgenes and non-transgenic WT littermates. Genotyping was performed by PCR of tail DNA. All analyses were carried out blind with respect to the mice genotype. For the subretinal injection, 6-month-old C57BL/6J mice were anesthetized by an intraperitoneal injection of ketamine/xylazine, pupils dilated with 1.0% tropicamide (Akorn, Ill., USA); and 0.5% Proparacaine Hydrochloride (Akorn) was applied for topical anesthesia. Eyes were punctured with a 30-gauge needle between the corneoscleral junction and the ora serrata into the vitreous cavity without disturbing the lens. Compounds were delivered to the subretinal region using a 33-gauge blunt needle attached to a 5p.1 Hamilton syringe (Hamilton Company, Reno, Nev., USA) under a dissecting microscope. Non-injected mice were used as negative control while the PBS injected mice were used for sham. […]

[2] = system: human diabetic and non-diabetic adipocytes; assay: TP53 and IL8 expression (Taqman Real time PCR) in human adipocytes treated with IL1β; assay type: cell-based
Experimental: A) experimental design. B) expression levels of TP53 and IL8 in human diabetic and non-diabetic adipocytes by the means of Taqman Real time PCR.
IL1β is a cytokine that induce insulin resistance in adipocytes 18 • Similarly, IL8 was elevated by IL1β and brought down around 40 folds by 500 nM ELV34 in both diabetic and non-diabetic adipocytes. Even though the mechanisms are unknown ELV34 can be a therapeutic agent to stop or halt damaging signaling observed in diabetic patients.

[3] = system: hypothalamus, SAT and VAT; assay: Adiponectin levels in diabetic hypothalamus and adipose tissue; parameters: species or system db/db mice
[4] = co-injected with OAβ subretinally, then topical ELV, day 7

Structure (SMILES): CC/C=C\C[C@H](O)\C=C/C=C/C=C/[C@H](O)C/C=C\C/C=C\CCCCCCCCCCCCCCC(=O)O [ELV-N-34]
- cell survival [1]: promoted cell survival
- infarct volumes [1]: reduced infarct volumes
- neurovascular unit disruption [1]: diminished neurovascular unit disruption
- F-Jb signal (degenerating neurons) (hypothalamic neurons): decrease
- PRC degeneration / ONL after ELV injected alone (RPE and PRC; ELV alone, no OAβ, subretinal): did not yield PRC degeneration
- PRC protection (PRC layer, OCT) (RPE and PRC; [4]): protection of PRC
- RPE morphology (ZO-1 whole flat mount) (RPE and PRC; [4]): restoration of RPE morphology
- p16INK4a protein (western blot of RPE/Choroid) (RPE and PRC; elevated by OAβ injection, day 7): down regulated
- OAβ-activated senescence program (p16INK4a, MMP1, p53, p21, p27, Il-6, SASP secretome) followed by RPE and PRC demise (RPE and PRC): blunt these events and elicit protection to both cells
- OAβ-activated senescence program (p16INK4a, MMP1, p53, p21, p27, Il-6, SASP secretome) followed by RPE and PRC demise (RPE and PRC; listed as ELV 34): downregulatory mediators of OAβ-evoked senescence
- OAβ-activated senescence program (p16INK4a, MMP1, p53, p21, p27, Il-6, SASP secretome) followed by RPE and PRC demise (RPE and PRC; listed as elovanoid 34): blunt these events and elicits protection
- IL8 brought down ([2]; 500 nM, IL1β-elevated, diabetic and non-diabetic adipocytes): around 40 folds
- levels of TP53 mRNA ([2]; adipocytes from diabetic patient treated with IL1β): down to non-diabetic control levels
- effect of IL1β (TP53 and IL8 expression) ([2]; human diabetic adipocytes): revert the effect of IL1β
- adiponectin in subcutaneous (SAT) and visceral adipose tissue (VAT) [3]: Differential effect
- levels of Adiponectin ([3]; ELV34 treatment): increased
- adiponectin in diabetic hypothalamus ([3]; female and males): trend of increase
